{
  "source": "patent US10081630B2",
  "about": "“Radioactive halogen-labeled pyrido [1,2-A] benzimidazole derivative compound” (KYOTO UNIVERSITY, priority 2015, dated 2018)",
  "key": {"[1]": {"system": "tau accumulated in the brain with AD", "assay": "In vitro autoradiography using autopsied brain tissue of Alzheimer's disease patient", "type": "binding, human", "method": "(Evaluation 1) In Vitro Autoradiography Using Autopsied Brain Tissue of Alzheimer's Disease Patient (1) In Vitro Autoradiography\nAutopsied brain tissue sections of an Alzheimer's disease (AD) patient (sections from a frontal lobe site and a temporal lobe site, 6 μm) were used, which were provided from Graduate School of Medicine, Kyoto University and National Cerebral and Cardiovascular Center Hospital. Deparaffinization treatment was performed by washing with xylene (15 min×2), ethanol (1 min×2), a 90 vol % aqueous ethanol solution (1 min×1), an 80 vol % aqueous ethanol solution (1 min×1), a 70 vol % aqueous ethanol solution (1 min×1), and purified water (2.5 min×2). A 10 vol % aqueous ethanol solution of each radioactive iodine-labeled BIP derivative compound (370 kBq/mL) obtained by the method shown in Example 7 was added thereto, and the tissue sections were incubated at room temperature for 2 hours. The tissue sections were washed with a 50 vol % aqueous ethanol solution (1 hr×1), then exposed to an imaging plate (BAS-SR2025 manufactured by Fujifilm Corp.), and analyzed using a bioimaging analyzer (bioimaging analyzer BAS-5000 manufactured by Fujifilm Corp.). Multi Gauge manufactured by Fujifilm Corp. was used in quantitative analysis.\nFIGS. 5E and 5F show the results obtained using [^125I]BIP-NMe2. FIGS. 5G and 5H show the results obtained using [^125I]BIP-OMe. FIGS. 5I and 5J show the results obtained using [^125I]BIP-Me. FIGS. 5E, 5G, and 5I show the results obtained using the brain tissue section of the frontal lobe. FIGS. 5F, 5H, and 5J show the results obtained using the brain tissue section of the temporal lobe.\nTau and Aβ were immunostained using sections adjacent to the autopsied AD brain tissue sections used in autoradiography. An anti-phosphorylated tau monoclonal antibody (AT8, manufactured by Thermo Fisher Scientific Inc.) was used as a primary antibody in the immunostaining of tau, and an anti-Aβ1-42 monoclonal antibody (BC05, manufactured by Wako Pure Chemical Industries, Ltd.) was used as a primary antibody in the immunostaining of Aβ. Deparaffinization treatment was performed by washing with xylene (15 min×2), ethanol (1 min×2), a 90 vol % aqueous ethanol solution (1 min×1), an 80 vol % aqueous ethanol solution (1 min×1), a 70 vol % aqueous ethanol solution (1 min×1), and purified water (2.5 min×2). The antigens were retrieved by autoclaving (15 min) in a 0.01 mol/L citrate buffer solution (pH 6.0) and formic acid treatment (5 min). The tissue sections were washed with running water (5 min) and then washed with PBS-Tween 20 (2 min×1). The tissue sections were reacted with primary antibody solutions at room temperature for 1 hour and then washed with PBS-Tween 20 (5 min×3). The tissue sections were reacted with Histofine Simple Stain MAX-PO (MULTI) (manufactured by Nichirei Biosciences Inc.) at room temperature for 30 minutes and then washed with PBS-Tween 20 (3 min×3) and TBS (5 min×1). Finally, the tissue sections were reacted with a DAB solution at room temperature for 1 minute. The tissue sections were washed with distilled water (1 min×1) to terminate the reaction. The brain tissue sections were mounted on slides and then observed under a microscope (BZ-9000 manufactured by Keyence Corporation).\nFIGS. 5A and 5B show the results obtained using the brain tissue section of the frontal lobe. FIGS. 5C and 5D show the results obtained using the brain tissue section of the temporal lobe. FIGS. 5A and 5C show the results of immunostaining with the antibody against tau. FIGS. 5B and 5D show the results of immunostaining with the antibody against Aβ."}, "[2]": {"assay": "Evaluation of in vivo radioactivity distribution in normal mouse", "conditions": "normal ddY male mice, tail vein; for radioactivity distribution, Blood / radioactivity distribution, Brain / radioactivity distribution, Heart / radioactivity distribution, Intestine / radioactivity distribution, Kidney / radioactivity distribution, Liver / radioactivity distribution, Lung / radioactivity distribution, Pancreas / radioactivity distribution, Spleen / radioactivity distribution, Stomach / radioactivity distribution, Thyroid gland: mean (SD)", "method": "(Evaluation 2) Evaluation of In Vivo Radioactivity Distribution in Normal Mouse\nEach compound of [^125I]BIP-NMe2, [^125I]BIP-OMe, and [^125I]BIP-Me synthesized according to the method shown in Example 7 was diluted with saline containing 10 vol % ethanol and 0.1 vol % Tween 80. Each radioactive iodine-labeled BIP derivative compound was administered to a group of 5-week-old ddY male mice (26 to 28 g; each group involved 5 mice) from the tail veins thereof at 19.6 to 29.4 kBq (100 μL) per mouse. After 2, 10, 30, or 60 minutes, the mice were slaughtered. After blood collection, the organs were taken out, and their weights and radioactivity were measured.\nIn Tables 2 to 4, the numerical values shown in the column “Time after administration” are means of % ID for the stomach and the thyroid gland and means of % ID/g for the other tissues with standard deviation (SD) shown in parenthesis."}},
  "data": [
    {"smiles": "COc1ccn2c(c1)nc1cc([125I])ccc12", "note": "[[^125I]BIP-OMe, 7-[^125I]iodo-3-methoxypyrido[1,2-a]benzimidazole]", "values": [
      {"measurement": "radioactivity accumulation in the brain tissue section of the frontal lobe", "setting": "[1]; AD patient autopsied brain section, frontal lobe, 370 kBq/mL, 2 hours room temperature", "value": "none"},
      {"measurement": "radioactivity accumulation in the brain tissue section of the temporal lobe", "setting": "[1]; AD patient autopsied brain section, temporal lobe, 370 kBq/mL, 2 hours room temperature", "value": "exhibited radioactivity accumulation in only the brain tissue section of the temporal lobe"},
      {"measurement": "nonspecific binding to the brain white matter", "setting": "[1]; AD patient autopsied brain sections", "value": "low"},
      {"measurement": "visualization of tau (autoradiography compared with tau and Aβ immunostaining)", "setting": "[1]; AD patient temporal lobe section, adjacent sections immunostained (AT8, BC05)", "value": "clearly visualizes tau accumulated in the brain with AD"},
      {"measurement": "clearance from the brain", "setting": "[2]", "value": "rapid clearance from the brain"},
      {"measurement": "transfer to the brain early after administration", "setting": "[2]", "value": "high transfer to the brain"},
      {"measurement": "radioactivity distribution, Blood", "setting": "[2]; 2 min after administration", "value": "5.41(0.40) % ID/g"},
      {"measurement": "radioactivity distribution, Brain", "setting": "[2]; 2 min after administration", "value": "4.30(0.41) % ID/g"},
      {"measurement": "radioactivity distribution, Heart", "setting": "[2]; 2 min after administration", "value": "5.17(0.27) % ID/g"},
      {"measurement": "radioactivity distribution, Intestine", "setting": "[2]; 2 min after administration", "value": "2.94(0.15) % ID/g"},
      {"measurement": "radioactivity distribution, Kidney", "setting": "[2]; 2 min after administration", "value": "8.66(0.73) % ID/g"},
      {"measurement": "radioactivity distribution, Liver", "setting": "[2]; 2 min after administration", "value": "17.8(3.98) % ID/g"},
      {"measurement": "radioactivity distribution, Lung", "setting": "[2]; 2 min after administration", "value": "6.09(0.34) % ID/g"},
      {"measurement": "radioactivity distribution, Pancreas", "setting": "[2]; 2 min after administration", "value": "4.38(0.30) % ID/g"},
      {"measurement": "radioactivity distribution, Spleen", "setting": "[2]; 2 min after administration", "value": "3.60(1.10) % ID/g"},
      {"measurement": "radioactivity distribution, Stomach", "setting": "[2]; 2 min after administration", "value": "2.30(0.33) % ID"},
      {"measurement": "radioactivity distribution, Thyroid gland", "setting": "[2]; 2 min after administration", "value": "0.10(0.05) % ID"},
      {"measurement": "radioactivity distribution, Blood", "setting": "[2]; 10 min after administration", "value": "3.39(0.12) % ID/g"},
      {"measurement": "radioactivity distribution, Brain", "setting": "[2]; 10 min after administration", "value": "0.71(0.14) % ID/g"},
      {"measurement": "radioactivity distribution, Heart", "setting": "[2]; 10 min after administration", "value": "1.94(0.18) % ID/g"},
      {"measurement": "radioactivity distribution, Intestine", "setting": "[2]; 10 min after administration", "value": "8.99(1.43) % ID/g"},
      {"measurement": "radioactivity distribution, Kidney", "setting": "[2]; 10 min after administration", "value": "7.38(1.46) % ID/g"},
      {"measurement": "radioactivity distribution, Liver", "setting": "[2]; 10 min after administration", "value": "16.2(1.80) % ID/g"},
      {"measurement": "radioactivity distribution, Lung", "setting": "[2]; 10 min after administration", "value": "3.33(0.24) % ID/g"},
      {"measurement": "radioactivity distribution, Pancreas", "setting": "[2]; 10 min after administration", "value": "1.59(0.18) % ID/g"},
      {"measurement": "radioactivity distribution, Spleen", "setting": "[2]; 10 min after administration", "value": "3.16(0.18) % ID/g"},
      {"measurement": "radioactivity distribution, Stomach", "setting": "[2]; 10 min after administration", "value": "5.47(0.88) % ID"},
      {"measurement": "radioactivity distribution, Thyroid gland", "setting": "[2]; 10 min after administration", "value": "0.04(0.02) % ID"},
      {"measurement": "radioactivity distribution, Blood", "setting": "[2]; 30 min after administration", "value": "2.24(0.27) % ID/g"},
      {"measurement": "radioactivity distribution, Brain", "setting": "[2]; 30 min after administration", "value": "0.17(0.02) % ID/g"},
      {"measurement": "radioactivity distribution, Heart", "setting": "[2]; 30 min after administration", "value": "0.99(0.08) % ID/g"},
      {"measurement": "radioactivity distribution, Intestine", "setting": "[2]; 30 min after administration", "value": "16.8(4.30) % ID/g"},
      {"measurement": "radioactivity distribution, Kidney", "setting": "[2]; 30 min after administration", "value": "5.74(2.30) % ID/g"},
      {"measurement": "radioactivity distribution, Liver", "setting": "[2]; 30 min after administration", "value": "7.25(1.28) % ID/g"},
      {"measurement": "radioactivity distribution, Lung", "setting": "[2]; 30 min after administration", "value": "1.76(0.11) % ID/g"},
      {"measurement": "radioactivity distribution, Pancreas", "setting": "[2]; 30 min after administration", "value": "0.86(0.22) % ID/g"},
      {"measurement": "radioactivity distribution, Spleen", "setting": "[2]; 30 min after administration", "value": "1.07(0.08) % ID/g"},
      {"measurement": "radioactivity distribution, Stomach", "setting": "[2]; 30 min after administration", "value": "6.62(1.28) % ID"},
      {"measurement": "radioactivity distribution, Thyroid gland", "setting": "[2]; 30 min after administration", "value": "0.01(0.00) % ID"},
      {"measurement": "radioactivity distribution, Blood", "setting": "[2]; 60 min after administration", "value": "1.27(0.15) % ID/g"},
      {"measurement": "radioactivity distribution, Brain", "setting": "[2]; 60 min after administration", "value": "0.08(0.03) % ID/g"},
      {"measurement": "radioactivity distribution, Heart", "setting": "[2]; 60 min after administration", "value": "0.52(0.08) % ID/g"},
      {"measurement": "radioactivity distribution, Intestine", "setting": "[2]; 60 min after administration", "value": "20.1(4.03) % ID/g"},
      {"measurement": "radioactivity distribution, Kidney", "setting": "[2]; 60 min after administration", "value": "2.20(1.20) % ID/g"},
      {"measurement": "radioactivity distribution, Liver", "setting": "[2]; 60 min after administration", "value": "4.61(0.35) % ID/g"},
      {"measurement": "radioactivity distribution, Lung", "setting": "[2]; 60 min after administration", "value": "1.21(0.30) % ID/g"},
      {"measurement": "radioactivity distribution, Pancreas", "setting": "[2]; 60 min after administration", "value": "0.53(0.13) % ID/g"},
      {"measurement": "radioactivity distribution, Spleen", "setting": "[2]; 60 min after administration", "value": "0.63(0.10) % ID/g"},
      {"measurement": "radioactivity distribution, Stomach", "setting": "[2]; 60 min after administration", "value": "5.34(1.23) % ID"},
      {"measurement": "radioactivity distribution, Thyroid gland", "setting": "[2]; 60 min after administration", "value": "0.01(0.00) % ID"}
    ]}
  ]
}
